Values quoted from earlier work, collected in article PMC5979345, “Identification of an ACE-Inhibitory Peptide from Walnut Protein and Its Evaluation of the Inhibitory Mechanism” (International Journal of Molecular Sciences, 2018).

What was measured:
ACE [1] = settings: identified from Stichopus horrens
Description: To further evaluate the active mechanism of the novel ACEI peptide, the inhibition pattern of the peptide, EPNGLLLPQY, against ACE was investigated by the Line weaver-Burk plot analysis method. […] When the EPNGLLLPQY was added to the r ...

ACE [2] = settings: from walnut protein digested by neutral proteinase As1.398, 45 °C, 5 h, pH 7.0
Description: In the present study, the peptide EPNGLLLPQY was identified from the hydrolysate of walnut protein digested by […]. Moreover, there were several reports related to the peptides from walnut protein hydrolysates with ACE-inhibitory activity.

| Substance | Inhibition pattern (ACE [1]) | ACE-inhibitory activity (in words) (ACE [2]) |
| --- | --- | --- |
| EVSQGRP [food-derived peptide identified from Stichopus horrens] | mixed-type of inhibition | – |
| LPGRPPIKPWPL | – | ACE-inhibitory peptides |
| SAAVGSP [food-derived peptide identified from Stichopus horrens] | mixed-type of inhibition | – |
| VSRHFASYAN [food-derived peptide identified from Stichopus horrens] | mixed-type of inhibition | – |
| WPERPPQIP | – | ACE-inhibitory peptides |
